Our source for the melting point values is a melting point compilation (Tetko et al.; mined from patent text by program, amines drawn as free bases though some values may be those of a salt).

Broadly, the melting point is the temperature of the solid-liquid transition. As for `COc1cc2c(c(OC)c1OC)C(=O)c1c-2n(C)c(=O)c2ccccc12`, the melting point is 194 to 195 °C.
As to `COC(=S)c1nc(Br)nc(C)c1Cl`, the melting point was 105 to 106 °C.
Then `CNc1nc(C)c(-c2ccnc(Nc3ccc(N4CCN(C(C)=O)CC4)cc3)n2)s1`, with 213 to 214 °C; and `Cc1ccc(-c2ccc3c(c2)CCc2nn(-c4ccccn4)c(O)c2-3)cc1`, with 177 to 178 °C.
As to `O=C(CN1CCCCC1)Nc1ccc2c(c1)C(=O)c1cc(NC(=O)CN3CCCCC3)ccc1C2=O`, the melting point was 243 °C.
Then `COC(=O)c1sc(C(C)C)cc1NC(=O)Nc1ccccc1`, with 108 to 110 °C; and `O=C1SCCN1Cc1ccc([N+](=O)[O-])cc1`, with 146 to 148 °C.
With `Cc1nc(NCCc2ccc(OCc3nn[nH]n3)cc2)c2cc(C)sc2n1`, the melting point was determined as 205 °C.
Then `O=Cc1ccc(N(Cc2ccccc2)Cc2ccccc2)cc1[N+](=O)[O-]`, with 67 to 70 °C; and `C1=NC=C2CCNC=C12`, with 182 to 190 °C; and `C=CCN1CCCC1CNC(=O)c1cc(S(=O)(=O)CC)cc2c1OCCO2` (centres undefined), with 78 to 80 °C.
Then `CC(C)Sc1cc(C(C)(C)C)c(O)c(C(C)(C)C)c1`, with 80 to 82 °C; and `CCOC(=O)CSc1cc(Cl)nc(Nc2cccc(C)c2C)n1`, with 114 to 116 °C.
On to `CC(C)COc1ccc(S(C)(=O)=O)cc1C(=O)O`, for which the melting point fell in the range of 149 to 153 °C.
Compound `COC(=O)c1ccc(CN2CCN(C(=O)c3ccc(Cl)cc3)CC2)cc1` gave a melting point of 134 to 135 °C.
Then `Cc1ccc2c(c1)C(N(CCCCC(=O)O)S(C)(=O)=O)CC(C)(C)O2` (centres undefined), with 190 to 195 °C.
Turning to `COC(=O)NCCCCC(=O)OC[C@@H]1CC(c2ccc(-c3ccc(N4C[C@H](Cn5ccnn5)OC4=O)cc3F)cn2)=NO1`, the melting point amounted to 90 °C.
Then `CCCCS(=O)(=O)N1C(SCc2ccc(OC)cc2)=NC(C)(c2cccc([N+](=O)[O-])c2)C(C)(C(=O)OCC)C1c1cccc([N+](=O)[O-])c1` (centres undefined), with 66 to 68 °C; and `COc1ccccc1NC(=O)Nc1nc2c(s1)CN(C)CC2`, with 201 to 203 °C.
Then `CCOC(=O)C(=O)Nc1ccc(OC)cc1[N+](=O)[O-]`, with 151 °C; and `c1ccc(Cn2nc(-c3ccco3)c3cncnc32)cc1`, with 106 °C.
Then `Cc1ccccc1-c1ccc(C(=O)N2Cc3ccc(C(=O)NCc4ccc(OC(F)(F)F)cc4)n3Cc3ccccc32)cc1C`, with 147 to 149 °C; and `Cc1ccc(C(=O)c2cccc3c2CCC3(C)C(=O)O)cc1` (centres undefined), with 99 to 101 °C; and `CCOC(=O)Cc1cc(Br)c(SC(=O)N(C)C)c(Br)c1`, with 105 to 107 °C.
As for `CCCN(C(N)=S)c1ccc(Cl)cc1Cl`, the melting point worked out at 121 °C.
Then `OCCNc1cc(N2CCCC2)nc(N2CCCC2)n1`, with 150 to 152 °C; and `CS(=O)(=O)c1ccc(-c2cnn(CC(F)(F)F)c(=O)c2SC2CCCCC2)cc1`, with 165 to 167 °C; and `Cc1nc(-c2ccc(N)c(Br)c2)c[nH]1`, with 34 to 36 °C.
Then `CCCN1C(=O)C2(CC)CC(c3ccc([N+](=O)[O-])cc3)(C2)C1=O`, with 121 to 122 °C; and `COc1ccc(CCNc2nccc(-c3cccc(NC(=O)CCCN4C=CC=NC4)c3)n2)cc1OC`, with 121 to 122 °C; and `Cc1c(SCCCCS)ccnc1CO`, with 58 to 63 °C.
Then `COc1ccccc1N1CCN(CC2(C)N=C(c3ccccc3)NC2=O)CC1` (centres undefined), with 86 to 89 °C.
`CCOC(=O)C(=O)c1c[nH]c2cc(OC)ccc12` showed a melting point of 207 to 208 °C.
Then `CN1C(=O)CC[C@]2(C)c3ccc(-c4cnc5ccccc5c4)cc3CC[C@@H]12`, with 180 to 185 °C.
Then `CC1SC(=O)NN=C1c1ccc2c(c1)C(C)(C)CC(=O)N2` (centres undefined), with 288 °C; and `NCC1Cc2cc(F)cc(-c3ccc(Cl)cc3Cl)c2O1` (centres undefined), with 107 to 109 °C.
Then `Cc1oc(-c2ccccc2)nc1CCOc1ccc(CC(Br)C#N)cn1` (centres undefined), with 93 to 94 °C; and `COc1ccc(S(C)(=O)=O)cc1C(=O)O`, with 189 to 191 °C; and `O=C(O)COc1c(-c2cccc(Cl)c2)cc(C(=O)NCCCC2CCCC2)cc1-c1cccc(C(F)(F)F)c1`, with 173 to 175 °C.
Compound `O=C(CCC(F)(F)F)Oc1cc(=O)n(-c2ccccc2)c2ncccc12` yielded a melting point of 193 to 195 °C.
Then `Cn1c(CO)cnc1[N+](=O)[O-]`, with 142 to 144 °C; and `CC1CCCC(C)N1Cc1ccc2cc(NC(=O)C3(Cl)C=CC(c4ccccc4Cl)=CC3)ccc2n1` (centres undefined), with 162 to 164 °C.
Then `O=c1[nH]c2ncc(-c3cn[nH]c3)nc2n1CC1CCOCC1`, with 238 to 240 °C; and `C[C@@H]1N[C@H](c2ccccc2)COC1=O`, with 82 to 83 °C; and `O=S(=O)(Nc1cccc(Br)c1)c1cc(S(=O)(=O)Nc2cccc(Br)c2)c2ccccc2c1`, with 183 to 186 °C.
Then `CN(c1ccc(Cl)cc1)S(=O)(=O)c1cccc(C(=O)Nc2ccc(Br)cc2F)c1`, with 126 to 127 °C; and `CC1Cc2cc(S(N)(=O)=O)cc(C(=O)NCC3CCCN3Cc3ccccc3)c2O1` (centres undefined), with 161 to 167 °C.
`C=CS(=O)(=O)NCc1ccc(C(N)=O)cc1` yielded a melting point of 142 to 144 °C.
Then `CCCCN(C)C(=O)CS(=O)CCCCCCOc1ccc(C2=C(c3ccccc3)CCCc3cc(O)ccc32)cc1` (centres undefined), with 72 to 73 °C; and `O=c1cc(N2CCOCC2)nc2n1CC[C@@H](C(F)(F)F)N2`, with 108 °C.
Take `CC(=O)Nc1ccc(C#N)c(F)c1`: the melting point lay in the range of 190 to 192 °C.
Then `COCCc1nc2c(N)nc3ccccc3c2n1CCCNC(=O)c1ccccc1`, with 183 to 186 °C.
`CCC1=NN(CCO[Si](C)(C)C(C)(C)C)C(=O)C1Oc1cc(C#N)cc(C#N)c1` (centres undefined) returned a melting point of 204 °C.
Then `C=C(C(=O)c1ccc(Cl)cc1)c1ccc(Cl)cc1Cl`, with 90 to 93 °C.
Then `COc1ccccc1C1NC(=O)C(C)S1` (centres undefined), with 187 to 188 °C; and `COc1cccc(COc2cccc3c2CN(C2CCC(=O)NC2=O)C3=O)c1` (centres undefined), with 225 to 227 °C; and `O=C(O)c1cc2cc(F)c(F)cc2[nH]1`, with 279 to 280 °C.
Then `NC(=O)N(CCCl)C(c1ccccc1)P(=O)(O)O` (centres undefined), with 195 °C; and `CN(C)C=C(C=C(C#N)C(=O)OC(C)(C)C)c1cccnc1`, with 161 to 163 °C.
For the compound `CCOC(=O)c1cnc2c(OC)nc(OC)cc2c1Cl`, the melting point was in the range of 200 to 210 °C.
Then `CC(=O)Nc1cccc(-c2ccnc3c(C#N)cnn23)c1`, with 252 to 254 °C; and `COc1ccc([C@H]2Cc3c(cccc3C(F)(F)F)NC(=O)[C@H]2O)cc1` (relative stereo), with 205 to 208 °C.
Then `O=C(c1ccc(OCc2ccccc2)cc1)c1ccc(OCc2ccccc2)cc1`, with 188 to 190 °C; and `Cc1noc(NS(=O)(=O)c2ccccc2-c2ccc(-c3ncco3)cc2CNC(C)C(F)(F)F)c1C` (centres undefined), with 60 to 70 °C; and `COc1ccccc1NC(=O)Nc1nc(Oc2ccc3ccccc3c2)nc(N(CCC(=O)O)Cc2cccc3ccccc23)n1`, with 230 to 233 °C.
Then `CCCCCC1(C)OCc2c1cnc(C)c2O` (centres undefined), with 222 °C.
The compound `O=C(C(=O)c1ccc(C(F)(F)F)cc1)c1ccc(C(F)(F)F)cc1` showed a melting point of 141 to 142 °C.
Regarding `Cc1nc2ccccc2n1-c1ccc(C#N)cc1`, the melting point fell in the range of 166 to 168 °C.
Then `CNC1(c2ccccc2Cl)C(=O)Nc2ccc(F)cc21` (centres undefined), with 188 to 189 °C; and `Nc1ccc(OCc2nc3ccccc3s2)cc1`, with 87 to 89 °C.
Then `O=c1c2cc(Cl)ccc2nc(C(S)c2ncnc3[nH]cnc23)n1-c1ccccc1Cl` (centres undefined), with 237 to 238 °C; and `CC(=O)Oc1ccccc1C(=O)C1c2ccccc2C(=O)N1CCO[N+](=O)[O-]` (centres undefined), with 81 to 83 °C; and `O=C(O)CCc1cn(Cc2ccc(OCc3cccnc3)cc2)nc1OCc1cccnc1`, with 116 to 117 °C.
Then `COc1ccc(-c2cnc(-c3ccncc3)o2)cc1`, with 105 to 107 °C.
In the case of `CC(C)(C)NC(=O)c1cnc(Cl)cc1-c1ccc(F)cc1`, the melting point was in the range of 168 to 173 °C.
Then `CC(=CCc1c(C)c(N=Nc2ccc([N+](=O)[O-])cc2[N+](=O)[O-])c2ccccc2c1O)CCCC(C)CCCC(C)CCCC(C)C` (centres undefined), with 110 °C; and `CCCOc1cc(=O)n(CCC)c(=O)n1Cc1ccc(-c2ccccc2C2NOC(=O)N2)cc1` (centres undefined), with 129 to 132 °C.
Then `COc1c(Cl)cc2c(N)nc(N3CCN(C(=O)C4CCCO4)CC3)nc2c1OC` (centres undefined), with 192 to 193 °C.
Then `O=C(Nc1ccc(C(CC2CCCC2)C(=O)Nc2ccccn2)cc1)c1cccnc1` (centres undefined), with 160 to 163 °C.
As for `CCCN(CCC)CCc1cccc2[nH]c(=O)[nH]c12`, the melting point is 189 to 192 °C.
Then `C#Cc1cc(Cl)cc2c1OC(C(F)(F)F)C(C(=O)O)=C2` (centres undefined), with 186 to 189 °C; and `C1=C(c2cc3ccccc3[nH]2)Cc2ccccc21`, with 273 to 274 °C.
Then `O=C(CCCCCCCCC1CO1)OCCOC(=O)CCCCCCCCC1CO1` (centres undefined), with 39 to 40 °C; and `COCOc1cc(Cl)ccc1-c1cc(-c2cccc(N(C(=O)OC(C)(C)C)C(=O)[C@@H](N)Cc3c[nH]cn3)c2)c(C#N)c(NC(=O)c2ccco2)n1`, with 149 to 150 °C; and `Cc1nc2cccc3n(CCCCNS(C)(=O)=O)c(=O)c1n23`, with 166 to 167 °C.
Consider `Cc1nn(CCN)c(C)c1Cc1cc(Cl)cc(Cl)c1`, for which the melting point lay in the range of 70 to 72 °C.
Then `NC(=O)c1c(N)cccc1OCc1ccccc1`, with 158 to 160 °C.
The compound `CONC(C(C)=O)c1cc(-n2c(=O)cc(C(F)(F)F)n(C)c2=O)ccc1Cl` (centres undefined) displayed a melting point of 160 to 161 °C.
Then `COC(=O)c1cccn2c(I)cnc12`, with 99 to 110 °C.
